Series [1] relates to RAW264.7. Briefly: Antiinflammatory activity in mouse RAW264.7 cells assessed as inhibition of LPS-induced NO production at 30 uM preincubated for 0.5 hrs followed by LPS stimulation and measured after 24 hrs by Griess reagent based analysis. As to conditions: time 24.5 hrs. In kind it is functional.
The test system of series [2] is Rattus norvegicus. Briefly: Antiinflammatory activity in rat model of carrageenan-induced hind paw edema assessed as reduction in paw thickness at 100 mg/kg,ip 30mins before carrageenin exposure and measured after 3 hrs. Format: functional. Also noted: scale not given: the % may be the effect or the level left.
Series [3] is described as follows: Antioxidant activity assessed as ABTS radical scavenging activity measured after 6 mins. Format: functional.
For series [4], the system named is Rattus norvegicus. As to the kind of experiment: Antiinflammatory activity in rat model of carrageenan-induced paw edema assessed as reduction in paw thickness at 10 mg/kg,ip and measured after 4 hrs. Format: functional. Also noted: scale not given: the % may be the effect or the level left.
A short description of series [5]: Antioxidant activity assessed as […] radical scavenging activity at 50 uM. Format: functional.
Series [6] has as its system RAW264.7. Briefly: Antiinflammatory activity in mouse RAW264.7 cells assessed as inhibition of LPS-induced NO production preincubated for 1 hrs followed by LPS stimulation and measured after 24 hrs by Griess reagent based spectrophotometrical method. Format: functional, cell-based.
Series [7] concerns RAW264.7. As to the kind of experiment: Antiinflammatory activity in mouse RAW264.7 cells assessed as inhibition of KLA-induced TNFalpha expression at 0.06 mg/ml and measured after 24 hrs by ELISA. In kind it is functional.
Series [8] concerns RAW264.7. Briefly: Antiinflammatory activity in mouse RAW264.7 cells assessed as inhibition of LPS-induced NO production at 3 uM preincubated for 2 hrs followed by LPS stimulation and measured after 24 hrs by Griess method. Format: functional. As to conditions: time 26 hrs.
Series [9] concerns RAW264.7. Briefly: Antiinflammatory activity in mouse RAW264.7 cells assessed as inhibition of LPS-induced NO production at 100 uM preincubated for 2 hrs followed by LPS stimulation and measured after 24 hrs by Griess method. In kind it is functional. The note with it: time 26 hrs.
Series [10] relates to RAW264.7. As to the kind of experiment: Antiinflammatory activity in mouse RAW264.7 cells assessed as inhibition of LPS-induced TNFalpha production at 30 uM preincubated for 2 hrs followed by LPS stimulation and measured after 24 hrs by ELISA. In kind it is functional. As to conditions: time 26 hrs.
For series [11], the system named is RAW264.7. Briefly: Antiinflammatory activity in mouse RAW264.7 cells assessed as inhibition of LPS-induced TNFalpha production at 10 uM preincubated for 2 hrs followed by LPS stimulation and measured after 24 hrs by ELISA. Format: functional. As to conditions: time 26 hrs.
Series [12] concerns RAW264.7. Briefly: Antiinflammatory activity in mouse RAW264.7 cells assessed as inhibition of LPS-induced NO production at 30 uM preincubated for 2 hrs followed by LPS stimulation and measured after 24 hrs by Griess method. The note with it: time 26 hrs. In kind it is functional.
The subject of series [13] is RAW264.7. Briefly: Antiinflammatory activity in mouse RAW264.7 cells assessed as inhibition of LPS-induced IL-6 production at 3 uM preincubated for 2 hrs followed by LPS stimulation and measured after 24 hrs by ELISA. Format: functional. As to conditions: time 26 hrs.
Series [14] has as its system RAW264.7. As to the kind of experiment: Antiinflammatory activity in mouse RAW264.7 cells assessed as inhibition of LPS-induced IL-6 production at 30 uM preincubated for 2 hrs followed by LPS stimulation and measured after 24 hrs by ELISA. The note with it: time 26 hrs. In kind it is functional.
Series [15] deals with RAW264.7. As to the kind of experiment: Antiinflammatory activity in mouse RAW264.7 cells assessed as inhibition of LPS-induced NO production at 10 uM preincubated for 2 hrs followed by LPS stimulation and measured after 24 hrs by Griess method. Format: functional. As to conditions: time 26 hrs.
The test system of series [16] is RAW264.7. As to the kind of experiment: Antiinflammatory activity in mouse RAW264.7 cells assessed as inhibition of LPS-induced TNFalpha production at 100 uM preincubated for 2 hrs followed by LPS stimulation and measured after 24 hrs by ELISA. Format: functional. As to conditions: time 26 hrs.
The test system of series [17] is RAW264.7. As to the kind of experiment: Antiinflammatory activity in mouse RAW264.7 cells assessed as inhibition of LPS-induced TNFalpha production at 3 uM preincubated for 2 hrs followed by LPS stimulation and measured after 24 hrs by ELISA. Format: functional. The note with it: time 26 hrs.
In series [18] the test system is RAW264.7. As to the kind of experiment: Antiinflammatory activity in mouse RAW264.7 cells assessed as inhibition of LPS-induced IL-6 production at 10 uM preincubated for 2 hrs followed by LPS stimulation and measured after 24 hrs by ELISA. In kind it is functional. As to conditions: time 26 hrs.
The test system of series [19] is RAW264.7. Briefly: Antiinflammatory activity in mouse RAW264.7 cells assessed as inhibition of LPS-induced IL-6 production at 100 uM preincubated for 2 hrs followed by LPS stimulation and measured after 24 hrs by ELISA. As to conditions: time 26 hrs. Format: functional.
Series [20] concerns J774.1. As to the kind of experiment: Cytotoxicity in mouse J774.1 cells assessed as reduction in cell viability at 100 microg/ml. In kind it is toxicity, cell-based. As to conditions: at 100 µg/mL.
The subject of series [21] is J774.1. As to the kind of experiment: Antiinflammatory activity in mouse J774.1 cells assessed as inhibition of LPS-induced NO production incubated for 48 hrs by Griess reagent based analysis. Format: functional, cell-based. The note with it: Mus musculus, J774.1, 48 h.
The subject of series [22] is J774.1. Briefly: Antiinflammatory activity in mouse J774.1 cells assessed as inhibition of LPS-induced NO production at 100 microg/ml. Format: functional.
The next series deals with Zingiber officinale. Briefly: Inhibition of prostaglandin biosynthesis in ginger. In kind it is functional, organism-based.
The test system of series [23] is RAW264.7. As to the kind of experiment: Antiinflammatory activity in mouse RAW264.7 cells assessed as inhibition of LPS-induced NO production for 24 hrs by Griess assay. Format: functional, cell-based. As to conditions: RAW264.7, 24 h.
Series [24] has as its system Mus musculus. Briefly: Antiinflammatory activity in TPA-induced ear edema ICR mouse model assessed as inhibition of ear inflammation at 1 ug, TOP for 30 mins followed by TPA addition and measured after 6 hrs. In kind it is functional. The note with it: dose 1 µg, time 390 min, 6.5 h.
The test system of series [25] is RAW264.7. As to the kind of experiment: Antiinflammatory activity in mouse RAW264.7 cells assessed as inhibition of LPS-induced NO production. In kind it is functional, cell-based.
In series [26] the test system is RAW264.7. Briefly: Antiinflammatory activity against mouse RAW264.7 cells assessed as inhibition of IFN-gamma and LPS-induced COX2 production preincubated for 2 hrs followed by IFN-gamma and LPS stimulation and measured after 16 hrs by spectrophotometric analysis. Format: functional, cell-based.
The subject of series [27] is Mus musculus. As to the kind of experiment: Antiinflammatory activity in ICR mouse model of TPA-induced ear edema assessed as inhibition of ear inflammation at 1 mg,TOP for 30 mins followed by TPA addition and measured after 6 hrs. Format: functional. As to conditions: time 390 min, 6.5 h.
Series [28] in a line: Inhibition of COX in bovine seminal vesicle assessed as reduction in PGE2 production using arachidonic acid as substrate. Format: tissue-based, Bos taurus.

Each structure is given as a SMILES string. Converted amounts (≈) assume the structure as drawn.

For `OC[C@H]1O[C@@H](O[C@H](CCCCc2ccc(O)c(O)c2)CCc2ccc(O)cc2)[C@H](O)[C@@H](O)[C@@H]1O`, the inhibition at 30 µM in the series with RAW264.7 [1] was found to be 11%.

Take `CC(=O)Oc1ccccc1C(=O)O` [ASPIRIN]: the Activity in the series with Rattus norvegicus [2] came out at 80%.

As for `COc1c2cc(c(O)c1OC)CCCCC(=O)CCc1ccc(O)c-2c1` [MYRICANONE], the IC50 was found to be 19.6 µM in series [3] and 1 µM in the series on RAW264.7 [6]. Further, the Activity is 49.6% in the series with Rattus norvegicus [4] and 41% in series [5].

Regarding `O=C(CCc1ccccc1)C[C@@H](O)CCc1ccccc1`, the inhibition at 60 µg/mL in the series on RAW264.7 [7] turned out to be 35%.

For `COc1cc([C@H]2C[C@H](O)C[C@@H]([C@@H](O)Cc3ccc(O)cc3)O2)ccc1O`, the values for the inhibition at 3 µM in the series on RAW264.7 [8], in the series on RAW264.7 [13] and in the series on RAW264.7 [17] were 34%, 40% and 41%, respectively. The values for the inhibition at 100 µM in the series with RAW264.7 [9], in the series with RAW264.7 [16] and with RAW264.7 [19] were 34%, 41% and 40%, respectively. In addition, the inhibition at 30 µM is 41% with RAW264.7 [10], 34% with RAW264.7 [12] and 40% in the series on RAW264.7 [14]. Further, the inhibition at 10 µM in the series with RAW264.7 [11] was determined as 41%; in the series with RAW264.7 [15] it was 34%; in the series with RAW264.7 [18], 40%.

On to `OC[C@H]1O[C@@H](O[C@H](CCCCc2ccc(O)cc2)CCc2ccc(O)c(O)c2)[C@H](O)[C@@H](O)[C@@H]1O`, for which, in the series with RAW264.7 [1], the inhibition at 30 µM turned out to be 37%.

Turning to `COc1cc(O)c([C@@H](/C=C/C[C@@H](O)CCc2ccc(O)cc2)c2ccc(O)cc2)c2oc(-c3ccc(O)cc3)cc(=O)c12` (stereo in doubt; 112), the Activity in the series on J774.1 [20] turned out to be 85%. Besides, the IC50 in the series on J774.1 [21] came to 104 µM. Besides, in the series on J774.1 [22], the inhibition at 100 µg/mL amounted to 90%.

Consider `COc1cc(O)c([C@H](/C=C/C[C@@H](O)CCc2ccc(O)cc2)c2ccc(O)cc2)c(O)c1C(=O)/C=C/c1ccc(O)cc1`, for which the Activity in the series with J774.1 [20] is recorded as 85%. For the same compound, the IC50 in the series on J774.1 [21] is 84 µM. Further, the inhibition at 100 µg/mL in the series on J774.1 [22] worked out at 90%.

As to `COc1cc(CC[C@H](O)C[C@H](O)[C@@H](O)Cc2ccc(O)c(OC)c2)ccc1O`, the inhibition at 3 µM was 39% with RAW264.7 [8], 43% in the series on RAW264.7 [13] and 34% in the series with RAW264.7 [17]. For the same compound, the inhibition at 100 µM came out at 39% in the series with RAW264.7 [9], 34% in the series on RAW264.7 [16] and 43% with RAW264.7 [19]. Also, the inhibition at 30 µM in the series with RAW264.7 [10] was 34%; with RAW264.7 [12], 39%; in the series on RAW264.7 [14] it was 43%. The figures for the inhibition at 10 µM in the series on RAW264.7 [11], with RAW264.7 [15] and in the series with RAW264.7 [18] were 34%, 39% and 43%, respectively.

Consider `COc1ccc2c(c1)c(CC(=O)O)c(C)n2C(=O)c1ccc(Cl)cc1` [INDOMETHACIN], for which the half-inhibitory concentration (IC50) in the series on Zingiber officinale was 4.9 µM; in the series on RAW264.7 [23] it was 32.3 µM; in the series with RAW264.7 [25] it was 26.3 µM; in the series with RAW264.7 [26], 26.2 µg/mL (≈ 73.2 µM). The Activity in the series on Rattus norvegicus [4] is on record as 55.2%. Besides, the ID50 in the series on Mus musculus [24] amounted to 0.9 µmol; with Mus musculus [27], 0.3 mg.

`NC1=NN(c2cccc(C(F)(F)F)c2)CC1` [BW-755C]: the concentration for half-maximal inhibition (IC50) in series [28] worked out at 32 µM.

The values above are taken from ChEMBL document CHEMBL5233262, “Anti-inflammatory activity of naturally occuring diarylheptanoids - A review” (Bioorg Med Chem, 2021).
